# From ChEMBL document CHEMBL5625225, “Vinylphosphonate-based cyclic dinucleotides enhance STING-mediated cancer immunotherapy” (Eur J Med Chem, 2023)
# The source made the active and inactive calls. The calls are words filed in the database; no cut-off is given here.
# Columns and labels:
# [1] = Toxicity in BALB/c mouse assessed effect on body weight change at 0.67 to 6 mg/kg, IT(Intratumoral) measured upto 22 days; type: organism-based; settings: in vivo, other, 528 h, dose 0.67-6 mg/kg, time < 22 day
# [2] = Toxicity in BALB/c mouse assessed body weight loss at 6 mg/kg, IT(Intratumoral) measured after 7 days relative to control; type: organism-based; settings: in vivo, other, 168 h, time 7 day
# [3] = biological target: Stimulator of interferon genes protein (Homo sapiens, UniProt Q86WV6, R293Q); assay: Agonist activity at STING R293Q mutant (unknown origin) expressed in digitonin -permeabilized HEK293T cells preincubated for 30 mins followed by washout and measured after 5 hrs by Bright-glo luciferase assay; type: cell-based
# Chain of Stimulator of interferon genes protein (Homo sapiens, UniProt Q86WV6, R293Q) (Q86WV6 whole entry R293Q): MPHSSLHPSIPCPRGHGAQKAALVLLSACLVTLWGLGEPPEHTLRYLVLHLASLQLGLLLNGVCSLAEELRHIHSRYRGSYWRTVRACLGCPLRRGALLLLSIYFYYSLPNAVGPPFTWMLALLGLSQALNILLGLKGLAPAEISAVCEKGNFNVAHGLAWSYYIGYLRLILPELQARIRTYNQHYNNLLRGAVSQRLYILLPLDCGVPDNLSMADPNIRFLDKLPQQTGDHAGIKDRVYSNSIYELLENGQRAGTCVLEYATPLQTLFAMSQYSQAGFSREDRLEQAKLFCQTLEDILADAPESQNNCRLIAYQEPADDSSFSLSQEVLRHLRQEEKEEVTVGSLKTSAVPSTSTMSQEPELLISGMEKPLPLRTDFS
# [4] = Induction of cytokine production in human PBMC cells assessed as TNF-alpha level incubated for 60 mins followed by washout and measured after 15 hrs; type: functional, cell-based
# [5] = Induction of cytokine production in human PBMC cells assessed as IFN-gamma level incubated for 60 mins followed by washout and measured after 15 hrs; type: functional, cell-based
# [6] = Toxicity in BALB/c mouse assessed effect on drug tolerance at 0.67 to 6 mg/kg, IT(Intratumoral) measured upto 22 days; type: organism-based; settings: in vivo, other, 528 h, dose 0.67-6 mg/kg, time < 22 day
# [7] = biological target: Stimulator of interferon genes protein (Homo sapiens, UniProt Q86WV6, G230A/R293Q); assay: Agonist activity at STING G230A/R293Q mutant (unknown origin) expressed in digitonin -permeabilized HEK293T cells preincubated for 30 mins followed by washout and measured after 5 hrs by Bright-glo luciferase assay; type: cell-based
# Chain of Stimulator of interferon genes protein (Homo sapiens, UniProt Q86WV6, G230A/R293Q) (Q86WV6 whole entry G230A/R293Q): as the sequence (Q86WV6 whole entry R293Q) above, with G230A counted along it
# 4T1 [8] = assay: Antitumor immunity against mouse 4T1 cells xenografted in BALB/c syngeneic mouse model assessed as reduction in tumor volume measured upto 22 days administered as IT(Intratumoral) dose; type: functional; settings: time <= 22.0 day
# [9] = biological target: Stimulator of interferon genes protein (Homo sapiens, UniProt Q86WV6, G230A/R293Q/R71H); assay: Agonist activity at STING R71H/G230A/R293Q mutant (unknown origin) expressed in digitonin -permeabilized HEK293T cells preincubated for 30 mins followed by washout and measured after 5 hrs by Bright-glo luciferase assay; type: cell-based
# Chain of Stimulator of interferon genes protein (Homo sapiens, UniProt Q86WV6, G230A/R293Q/R71H) (Q86WV6 whole entry R71H/G230A/R293Q): as the sequence (Q86WV6 whole entry R293Q) above, with R71H, G230A counted along it
# [10] = Toxicity in BALB/c mouse assessed effect on animal survival at 0.67 to 6 mg/kg, IT(Intratumoral) measured upto 22 days; type: organism-based; settings: in vivo, other, 528 h, dose 0.67-6 mg/kg, time < 22 day
# [11] = system: Stimulator of interferon genes protein (Homo sapiens), Q86WV6 [G230A,R293Q]; settings: filed as agonist
# Chain of Stimulator of interferon genes protein (Homo sapiens), Q86WV6 [G230A,R293Q] (Q86WV6 whole entry G230A/R293Q): as the sequence (Q86WV6 whole entry R293Q) above, with G230A counted along it
# Description: Binding affinity to STING G230A/R293Q mutant (unknown origin) assessed as change in melting temperature by differential scanning fluorimetry analysis
# [12] = biological target: T1, Stimulator of interferon genes protein (Homo sapiens, UniProt Q86WV6); assay: Agonist activity at STING R232 mutant (unknown origin) expressed in digitonin -permeabilized HEK293T cells preincubated for 30 mins followed by washout and measured after 5 hrs by Bright-glo luciferase assay; type: cell-based
# Target sequence in this assay (Q86WV6 whole entry, looked up, stated change not applied): as the sequence (Q86WV6 whole entry R293Q) above, with Q293R counted along it
# [13] = biological target: T1, Stimulator of interferon genes protein; assay: Agonist activity at wild type STING (unknown origin) expressed in HEK293T cells measured after 7 hrs by Bright-glo luciferase assay; type: cell-based
# Target sequence in this assay (Q86WV6 whole entry): as the sequence (Q86WV6 whole entry R293Q) above, with Q293R counted along it
# [14] = Agonist activity at STING R232H mutant (unknown origin) expressed in digitonin -permeabilized HEK293T cells preincubated for 30 mins followed by washout and measured after 5 hrs by Bright-glo luciferase assay; type: cell-based; settings: Homo sapiens, HEK-293T
# [15] = system: Stimulator of interferon genes protein (Homo sapiens), Q86WV6 [UNDEFINED MUTATION]; settings: filed as agonist
# Chain of Stimulator of interferon genes protein (Homo sapiens), Q86WV6 [UNDEFINED MUTATION] (Q86WV6 whole entry, looked up, stated change not applied): as the sequence (Q86WV6 whole entry R293Q) above, with Q293R counted along it
# Description: Binding affinity to STING R232 mutant (unknown origin) assessed as change in melting temperature by differential scanning fluorimetry analysis
# [16] = biological target: T1, Stimulator of interferon genes protein; assay: Agonist activity at wild type STING (unknown origin) expressed in HEK293T cells preincubated for 30 mins followed by washout and measured after 6.5 hrs by Bright-glo luciferase assay; type: cell-based
# Target sequence in this assay (Q86WV6 whole entry): as the sequence (Q86WV6 whole entry R293Q) above, with Q293R counted along it
# [17] = Induction of cytokine production in human PBMC cells assessed as IFN-alpha level incubated for 60 mins followed by washout and measured after 15 hrs; type: functional, cell-based
# [18] = Stability in human plasma assessed as half life at 5 uM measured upto 120 mins by UPLC/MS analysis; type: ADME, cell-free
# [19] = Toxicity in BALB/c mouse assessed effect on animal survival at 0.22 to 2 mg/kg, IT(Intratumoral) measured upto 22 days; type: organism-based; settings: in vivo, other, 528 h, dose 0.22-2 mg/kg, time < 22 day
# [20] = Stability in mouse plasma assessed as half life at 5 uM measured upto 120 mins by UPLC/MS analysis; type: ADME, cell-free
# [21] = Toxicity in BALB/c mouse assessed effect on body weight change at 0.22 to 2 mg/kg, IT(Intratumoral) measured upto 22 days; type: organism-based; settings: in vivo, other, 528 h, dose 0.22-2 mg/kg, time < 22 day
# [22] = Toxicity in BALB/c mouse assessed effect on drug tolerance at 0.22 to 2 mg/kg, IT(Intratumoral) measured upto 22 days; type: organism-based; settings: in vivo, other, 528 h, dose 0.22-2 mg/kg, time < 22 day
# 4T1 [23] = assay: Antitumor immunity against mouse 4T1 cells xenografted in BALB/c syngeneic mouse model assessed as tumor growth inhibition at 2 mg/kg, IT(Intratumoral) measured upto 22 days relative to control; type: functional; settings: 4T1, 528 h, time <= 22 day, read-out: TGI
# 4T1 [24] = assay: Antitumor immunity against mouse 4T1 cells xenografted in BALB/c syngeneic mouse model assessed as tumor growth inhibition at 0.67 mg/kg, IT(Intratumoral) measured upto 22 days relative to control; type: functional; settings: 4T1, 528 h, time <= 22 day, read-out: TGI
# 4T1 [25] = assay: Antitumor immunity against mouse 4T1 cells xenografted in BALB/c syngeneic mouse model assessed as increase in AH1positive CD8 T cell level at 2 mg/kg, IT(Intratumoral) measured upto 22 days; type: functional, organism-based; settings: time <= 22.0 day
smiles,measurement,setting,value
Nc1ncnc2c1ncn2[C@@H]1O[C@@H]2/C=C\P(=O)(O)O[C@H]3[C@@H](F)[C@H](n4cnc5c(N)ncnc54)O[C@@H]3COP(=O)(O)O[C@H]2[C@H]1F,Activity,[1],Non-Toxic
same,Activity,[2],3%
same,EC50,[3],1050 nM
same,EC50,"[4]; Homo sapiens, PBMC",76000 nM
same,EC50,"[5]; Homo sapiens, PBMC",36000 nM
same,Activity,[6],Non-Toxic
same,EC50,[7],100 nM
same,Activity,4T1 [8],Dose-Dependent Effect
same,EC50,[9],100 nM
same,Activity,[10],Non-Toxic
same,ΔTm,[11],11.3 °C
same,EC50,[12],30 nM
same,EC50,[13],21500 nM
same,EC50,[14],12000 nM
same,ΔTm,[15],6 °C
same,EC50,[16],50100 nM
same,EC50,"[17]; Homo sapiens, PBMC",110000 nM
CC1(C(=O)OCOP2(=O)/C=C/[C@H]3O[C@@H](n4cnc5c(N)ncnc54)[C@H](F)[C@@H]3OP(=O)(OCOC(=O)C3(C)CCCCC3)OC[C@H]3O[C@@H](n4cnc5c(N)ncnc54)[C@H](F)[C@@H]3O2)CCCCC1 (stereo in doubt; 14C) [listing 1 of 2 here],half-life at 5 µM,[18],2.17 h
same,Activity,[19],Non-Toxic
same,EC50,[4]; pbmc,60 nM
same,half-life at 5 µM,[20],0.35 h
same,EC50,[5]; pbmc,70 nM
same,Activity,[21],Non-Toxic
same,Activity,[22],Non-Toxic
same,inhibition in vivo at 2 mg/kg,4T1 [23],80%
same,EC50,[13],13 nM
same,EC50,[16],30 nM
same,inhibition in vivo at 0.67 mg/kg,4T1 [24],70%
same,EC50,[17]; pbmc,110 nM
CC1(C(=O)OCOP2(=O)/C=C/[C@H]3O[C@@H](n4cnc5c(N)ncnc54)[C@H](F)[C@@H]3OP(=O)(OCOC(=O)C3(C)CCCCC3)OC[C@H]3O[C@@H](n4cnc5c(N)ncnc54)[C@H](F)[C@@H]3O2)CCCCC1 (stereo in doubt; 14C) [listing 2 of 2 here],Activity,4T1 [8],Dose-Dependent Effect
same,Activity,4T1 [25],Active
